In US20230372313A1, “METHODS FOR REDUCING GLYCOSPHINGOLIPID CONCENTRATION IN BRAIN TISSUE AND METHODS OF TREATMENT OF NEURODEGENERATIVE DISEASES INVOLVING THE SAME” (GENZYME CORPORATION, priority 2020, published 2023):
Like-named read-outs stand apart in the source and are kept apart here.

Assay: Plasma pharmacokinetics of Compound 2 in PD participants (LC-MS/MS)
Format: in vivo, human
Method: Participants were randomised to 3 doses of once-daily orally administered Compound 2 or placebo, in sequential cohort design, and were followed up to 36 weeks (52 weeks for Japanese participants). Participants in the low-dose group received 4 mg of Compound 2 as a once daily oral dose; participants in the mid-dose group received 8 mg of Compound 2 a once daily oral dose; and participants in the high-dose group received 15 mg of Compound 2 a once daily oral dose.
Analyses were based on all available data from participants who enrolled in part 1 of the trial and were randomised to receive either Compound 2 or placebo for up to 52 weeks for Japanese participants and 36 weeks for the ROW population. As part 1 was an exploratory, dose-escalation study, the sample size was not based on a statistical power calculation. Participants included in the primary safety analyses were those who were randomized and received at least one dose of Compound 2 or placebo. A data monitoring committee was responsible for overseeing the safety of patients and the risk/benefit ratio throughout the study. Duration of exposure to Compound 2 was different among the doses, as per the sequential cohort design, with the low- and high-dose cohorts commencing the study first and last, respectively. For pharmacokinetics, plasma parameters were calculated using noncompartmental methods, from plasma Compound 2 concentrations obtained after single dose administration. AUC0-24 and AUC0-48 were calculated using the trapezoidal method over a predefined time period of 24 hours or 48 hours, respectively. CLss/F was calculated using the following equation: CLss/F=Dose/AUCτ, where τ is the dosing interval. For pharmacodynamics, percent reduction of plasma or CSF GL-1 from baseline was calculated as (value−baseline)/baseline×100. Formal statistical testing was not conducted on MDS-UPDRS scale assessments.
The secondary outcome was to evaluate the pharmacokinetic profile of Compound 2 in plasma and cerebrospinal fluid (CSF) over a 4-week period. Plasma pharmacokinetic parameters included maximum plasma concentration (Cmax), time to Cmax (tmax), and area under the plasma concentration versus time curve from 0 to 24 h (AUC0-24). All parameters were assessed at Week 0 and Week 4 after treatment. In addition, AUC0-48 was assessed at Week 0, trough plasma concentration observed just before treatment administration during repeated dosing (Ctrough) was assessed at Weeks 2, 4, and 8 (FIG. 3), and total systemic clearance from plasma at steady state (CLSS/F) was assessed at Week 4. Plasma samples were collected at 1 hour pre-dose and 1, 2, 4, 8, 24, and 48 hours postdose. Compound 2 concentration in plasma was determined using a liquid chromatography tandem mass spectrometry method with a lower limit of quantification of 0.500 ng/mL. CSF samples were collected by lumbar puncture during the screening period (within 14 days prior to randomisation) or on the day of randomisation, and at Week 4, within 2 to 4 hours postdose. Compound 2 concentration in CSF was determined using a liquid chromatography tandem mass spectrometry method with a lower limit of quantification of 0.100 ng/mL.

## CC(C)(NC(=O)O[C@@H]1CN2CCC1CC2)c1csc(-c2ccc(F)cc2)n1 [Compound 2, (S)-quinuclidin-3-yl (2-(2-(4-fluorophenyl)thiazol-4-yl)propan-2-yl)carbamate]
Japanese and ROW cohorts, 4, 8, 15 mg
  increase of Compound 2 concentration in plasma with dose: close to dose-proportional manner
human, plasma, oral, plasma, Week 4, Japanese participants, across all doses tested, read-out: median tmax values
  Tmax: 2.1 to 4.33 h
human, plasma, oral, plasma, Week 4, ROW participants, across all doses tested, read-out: median tmax values
  Tmax: 1.96 to 3.55 h
human, plasma, po, 4 mg, Week 4, Japan, Low 4 mg once daily oral, n = 3
  Cmax at 4 weeks: 56.3 ng/mL
human, plasma, po, 4 mg, plasma, Day 1, Japan, Low 4 mg oral, n = 3, read-out: AUC0-24, Geometric mean
  AUC(0-t): 390 ng·h/mL
human, plasma, po, 4 mg, plasma, Day 1, Japan, Low 4 mg oral, n = 3, read-out: AUC0-24, mean
  AUC(0-t): 393 ng·h/mL
human, plasma, po, 4 mg, plasma, Day 1, Japan, Low 4 mg oral, n = 3, read-out: AUC0-48, Geometric mean
  AUC(0-t): 660 ng·h/mL
human, plasma, po, 4 mg, plasma, Day 1, Japan, Low 4 mg oral, n = 3, read-out: AUC0-48, mean
  AUC(0-t): 661 ng·h/mL
human, plasma, po, 4 mg, plasma, Day 1, Japan, Low 4 mg oral, n = 3, read-out: Cmax, Geometric mean
  Cmax: 21.7 ng/mL
human, plasma, po, 4 mg, plasma, Day 1, Japan, Low 4 mg oral, n = 3, read-out: Cmax, mean
  Cmax: 21.8 ng/mL
human, plasma, po, 4 mg, plasma, Day 1, Japan, Low 4 mg oral, n = 3, read-out: tmax, median
  Tmax: 4.33 h
human, plasma, po, 4 mg, plasma, Day 1, ROW, Low 4 mg oral, n = 4, read-out: AUC0-24, Geometric mean
  AUC(0-t): 249 ng·h/mL
human, plasma, po, 4 mg, plasma, Day 1, ROW, Low 4 mg oral, n = 4, read-out: AUC0-24, mean
  AUC(0-t): 255 ng·h/mL
human, plasma, po, 4 mg, plasma, Day 1, ROW, Low 4 mg oral, n = 4, read-out: AUC0-48, Geometric mean
  AUC(0-t): 419 ng·h/mL
human, plasma, po, 4 mg, plasma, Day 1, ROW, Low 4 mg oral, n = 4, read-out: AUC0-48, mean
  AUC(0-t): 431 ng·h/mL
human, plasma, po, 4 mg, plasma, Day 1, ROW, Low 4 mg oral, n = 4, read-out: Cmax, Geometric mean
  Cmax: 13.6 ng/mL
human, plasma, po, 4 mg, plasma, Day 1, ROW, Low 4 mg oral, n = 4, read-out: Cmax, mean
  Cmax: 13.8 ng/mL
human, plasma, po, 4 mg, plasma, Day 1, ROW, Low 4 mg oral, n = 4, read-out: tmax, median
  Tmax: 4.07 h
human, plasma, po, 4 mg, plasma, Week 4, Japan, Low 4 mg once daily oral, n = 1, read-out: AUC0-24, Geometric mean
  AUC(0-t): 1130 ng·h/mL
human, plasma, po, 4 mg, plasma, Week 4, Japan, Low 4 mg once daily oral, n = 1, read-out: AUC0-24, mean
  AUC(0-t): 1130 ng·h/mL
human, plasma, po, 4 mg, plasma, Week 4, Japan, Low 4 mg once daily oral, n = 3, read-out: Cmax, Geometric mean
  Cmax: 56.2 ng/mL
human, plasma, po, 4 mg, plasma, Week 4, Japan, Low 4 mg once daily oral, n = 3, read-out: tmax, median
  Tmax: 4.33 h
human, plasma, po, 4 mg, plasma, Week 4, ROW, Low 4 mg once daily oral, n = 4, read-out: AUC0-24, Geometric mean
  AUC(0-t): 763 ng·h/mL
human, plasma, po, 4 mg, plasma, Week 4, ROW, Low 4 mg once daily oral, n = 4, read-out: AUC0-24, mean
  AUC(0-t): 766 ng·h/mL
human, plasma, po, 4 mg, plasma, Week 4, ROW, Low 4 mg once daily oral, n = 4, read-out: Cmax, Geometric mean
  Cmax: 41 ng/mL
human, plasma, po, 4 mg, plasma, Week 4, ROW, Low 4 mg once daily oral, n = 4, read-out: Cmax, mean
  Cmax: 41.6 ng/mL
human, plasma, po, 4 mg, plasma, Week 4, ROW, Low 4 mg once daily oral, n = 4, read-out: tmax, median
  Tmax: 1.96 h
human, plasma, po, 8 mg, plasma, Day 1, Japan, Mid 8 mg oral, n = 3, read-out: AUC0-24, Geometric mean
  AUC(0-t): 596 ng·h/mL
human, plasma, po, 8 mg, plasma, Day 1, Japan, Mid 8 mg oral, n = 3, read-out: AUC0-24, mean
  AUC(0-t): 623 ng·h/mL
human, plasma, po, 8 mg, plasma, Day 1, Japan, Mid 8 mg oral, n = 3, read-out: AUC0-48, Geometric mean
  AUC(0-t): 1070 ng·h/mL
human, plasma, po, 8 mg, plasma, Day 1, Japan, Mid 8 mg oral, n = 3, read-out: AUC0-48, mean
  AUC(0-t): 1130 ng·h/mL
human, plasma, po, 8 mg, plasma, Day 1, Japan, Mid 8 mg oral, n = 3, read-out: Cmax, Geometric mean
  Cmax: 29.9 ng/mL
human, plasma, po, 8 mg, plasma, Day 1, Japan, Mid 8 mg oral, n = 3, read-out: Cmax, mean
  Cmax: 31.3 ng/mL
human, plasma, po, 8 mg, plasma, Day 1, Japan, Mid 8 mg oral, n = 3, read-out: tmax, median
  Tmax: 4.02 h
human, plasma, po, 8 mg, plasma, Day 1, ROW, Mid 8 mg oral, n = 5, read-out: AUC0-24, Geometric mean
  AUC(0-t): 422 ng·h/mL
human, plasma, po, 8 mg, plasma, Day 1, ROW, Mid 8 mg oral, n = 5, read-out: AUC0-24, mean
  AUC(0-t): 457 ng·h/mL
human, plasma, po, 8 mg, plasma, Day 1, ROW, Mid 8 mg oral, n = 5, read-out: AUC0-48, Geometric mean
  AUC(0-t): 735 ng·h/mL
human, plasma, po, 8 mg, plasma, Day 1, ROW, Mid 8 mg oral, n = 5, read-out: AUC0-48, mean
  AUC(0-t): 776 ng·h/mL
human, plasma, po, 8 mg, plasma, Day 1, ROW, Mid 8 mg oral, n = 5, read-out: Cmax, Geometric mean
  Cmax: 23.8 ng/mL
human, plasma, po, 8 mg, plasma, Day 1, ROW, Mid 8 mg oral, n = 5, read-out: Cmax, mean
  Cmax: 26.3 ng/mL
human, plasma, po, 8 mg, plasma, Day 1, ROW, Mid 8 mg oral, n = 5, read-out: tmax, median
  Tmax: 4.17 h
human, plasma, po, 8 mg, plasma, Week 4, Japan, Mid 8 mg once daily oral, n = 3, read-out: AUC0-24, Geometric mean
  AUC(0-t): 1620 ng·h/mL
human, plasma, po, 8 mg, plasma, Week 4, Japan, Mid 8 mg once daily oral, n = 3, read-out: AUC0-24, mean
  AUC(0-t): 1650 ng·h/mL
human, plasma, po, 8 mg, plasma, Week 4, Japan, Mid 8 mg once daily oral, n = 3, read-out: Cmax, Geometric mean
  Cmax: 82.8 ng/mL
human, plasma, po, 8 mg, plasma, Week 4, Japan, Mid 8 mg once daily oral, n = 3, read-out: tmax, median
  Tmax: 2.12 h
human, plasma, po, 8 mg, plasma, Week 4, ROW, Mid 8 mg once daily oral, n = 5, read-out: AUC0-24, Geometric mean
  AUC(0-t): 1490 ng·h/mL
human, plasma, po, 8 mg, plasma, Week 4, ROW, Mid 8 mg once daily oral, n = 5, read-out: AUC0-24, mean
  AUC(0-t): 1510 ng·h/mL
human, plasma, po, 8 mg, plasma, Week 4, ROW, Mid 8 mg once daily oral, n = 5, read-out: Cmax, Geometric mean
  Cmax: 75.8 ng/mL
human, plasma, po, 8 mg, plasma, Week 4, ROW, Mid 8 mg once daily oral, n = 5, read-out: Cmax, mean
  Cmax: 77.8 ng/mL
human, plasma, po, 8 mg, plasma, Week 4, ROW, Mid 8 mg once daily oral, n = 5, read-out: tmax, median
  Tmax: 3.55 h
human, plasma, po, 15 mg, plasma, Day 1, Japan, High 15 mg oral, n = 3, read-out: AUC0-24, Geometric mean
  AUC(0-t): 977 ng·h/mL
human, plasma, po, 15 mg, plasma, Day 1, Japan, High 15 mg oral, n = 3, read-out: AUC0-24, mean
  AUC(0-t): 990 ng·h/mL
human, plasma, po, 15 mg, plasma, Day 1, Japan, High 15 mg oral, n = 3, read-out: AUC0-48, Geometric mean
  AUC(0-t): 1570 ng·h/mL
human, plasma, po, 15 mg, plasma, Day 1, Japan, High 15 mg oral, n = 3, read-out: AUC0-48, mean
  AUC(0-t): 1590 ng·h/mL
human, plasma, po, 15 mg, plasma, Day 1, Japan, High 15 mg oral, n = 3, read-out: Cmax, mean
  Cmax: 54.1 ng/mL
